Reference: patent US6933289B2, “Inhibition of irritating side effects associated with use of a topical ophthalmic medication” (Allergan, Inc., priority 2003, dated 2005)

Columns and labels:
[1] = 0.02% bimatoprost, cited from earlier work
[2] = Phase-solubility analysis: association constant between bimatoprost and cyclodextrin or cyclodextrin derivative; format: physicochemical; conditions: 1:1 complex with bimatoprost, stirred one week at room temperature
Protocol: CD represents the associated complex of the two. […] CD], according to equation 2. [formula]
The association constant between the bimatoprost and four cyclodextrin or cyclodextrin derivatives was determined by running phase-solubility analysis. A series of small glass bottles was set up, each fitted with a screw cap and a magnetic stir bar with increasing concentrations of cyclodextrin or cyclodextrin derivative dissolved in a fixed volume (e.g., 10 mL) of aqueous vehicle (e.g., the formulation minus the drug and the cyclodextrin or cyclodextrin derivative). […] Bottles were then capped and the suspensions were stirred for a week at room temperature to ensure equilibrium. Undissolved drug was removed by centrifugation, followed by filtration through a 0.45 μm filter membrane to obtain a clear solution, free of drug in suspension. The concentration of the solubilized drug in each filtrate sample was determined and drug solubility (y-axis) was plotted against the concentration of the cyclodextrin or cyclodextrin derivative (x-axis). […] In principle, S0 is equivalent to the y intercept (b) of the fitted line, however, in most cases it can more accurately be determined by direct measurement of the solubility rather than indirectly from the fit of data.

| Association Constant (molar association constant for bimatoprost) [2] | Molecule | Hyperemia ([1]; no cyclodextrin) | Efficacy [1] |
| --- | --- | --- | --- |
| – | CCNC(=O)CCC/C=C\C[C@@H]1[C@@H](/C=C/[C@@H](O)CCc2ccccc2)[C@H](O)C[C@@H]1O [bimatoprost] | little hyperemia | loses efficacy |
| ≈1464 M^−1 | Sulfobutyl ether β-cyclodextrin | – | – |
| ≈439 M^−1 | OC[C@H]1O[C@@H]2O[C@H]3[C@H](O)[C@@H](O)[C@@H](O[C@H]4[C@H](O)[C@@H](O)[C@@H](O[C@H]5[C@H](O)[C@@H](O)[C@@H](O[C@H]6[C@H](O)[C@@H](O)[C@@H](O[C@H]7[C@H](O)[C@@H](O)[C@@H](O[C@H]8[C@H](O)[C@@H](O)[C@@H](O[C@H]9[C@H](O)[C@@H](O)[C@@H](O[C@H]1[C@H](O)[C@H]2O)O[C@@H]9CO)O[C@@H]8CO)O[C@@H]7CO)O[C@@H]6CO)O[C@@H]5CO)O[C@@H]4CO)O[C@@H]3CO [γ-cyclodextrin] | – | – |
| ≈1913 M^−1 | 2-Hydroxypropyl β-cyclodextrin | – | – |
